# Tested on: rat sciatic nerve crush injury model
# Assay: Macrophage phenotypes after sciatic nerve injury (immunohistological evaluation, rat sciatic nerve crush injury model)
# Type: in vivo
# Design: Number of M2 macrophages: unit: per mm^2
# Protocol: Effects of methylcobalamin on macrophage phenotypes after sciatic nerve injury were analyzed by an immunohistological evaluation method. Specifically, the analysis was carried out as follows. Using transverse nerve sections at 2.5 mm in the proximal direction, at the injury site, and at 2.5, 5.0, and 7.5 mm in the distal direction, macrophages were evaluated by immunofluorescence staining at 1, 3, 7, and 14 days after sciatic nerve injury. The proximal direction refers to a cell body side of an axon with respect to an injury site, and the distal direction refers to a terminal side of an axon with respect to an injury site. Each of the distances indicates a distance from the injury site (the same applies to Example 8). Macrophages were labeled with CD68, an M1 marker iNOS, and an M2 marker CD206. The proportion of M1 macrophage was calculated by the following formula: Proportion of M1 macrophage (%)=number of M1-marker positive macrophages per mm^2/number of macrophages per mm^2×100. A more detailed description will be provided below.
# Six-week-old male Wistar rats (about 200 g) were used. The left sciatic nerve was exteriorized, and crush injury of the sciatic nerve was made on the proximal side by forceps. The nerve was crushed for 10 seconds three times at 10-second intervals. The fascia and skin were sutured using 3-0 nylon. A non-injury group which underwent only sciatic nerve exposure, an untreated group, and a methylcobalamin treatment group were compared. To administer methylcobalamin continuously, an osmotic minipump was placed and left in the dorsal subcutaneous space, and methylcobalamin was administered at a dose of 1 mg/kg/day. In an untreated group, physiological saline was administered instead of methylcobalamin according to the same procedure.
# At 1, 3, 7, and 14 days after the surgery, rats were anesthetized with an anesthetic agent. The left sciatic nerve was collected, fixed with 4% PFA for 7 days and with 20% sucrose for 24 hours, and the fixed nerve was freeze-embedded. The embedded tissue was sliced into a 5-μm-thick slice in a nerve short-axis direction and placed on a glass slide. Slices were obtained from 5 positions of 2.5 mm in the proximal direction from an injured region, the injured region, and 2.5, 5.0, and 7.5 mm in the distal direction. The slices were dried for 1 hour and fixed with 95% methanol for 30 minutes. The fixed slices were blocked and allowed to react with primary antibodies at 4° C. overnight. The cells were further allowed to react with a secondary antibody at room temperature for 1 hour so that the nuclei were labeled with DAPI.
# The primary antibodies used were a mouse anti-CD68 monoclonal antibody (Abcam), a rabbit anti-iNOS monoclonal antibody (Abcam), a rabbit anti-CD206 monoclonal antibody (Abeam), a rabbit anti-neurofilament 200 (NF 200) polyclonal antibody (SIGMA), and a mouse anti-myelin basic protein (MBP) monoclonal antibody (Calbiochem). The secondary antibodies used were an Alexa 488-labeled goat anti-mouse IgG antibody (Life Technologies), an Alexa 488-labeled goat anti-rabbit IgG antibody (Life Technologies), an Alexa 568-labeled goat anti-mouse IgG antibody (Life Technologies), and an Alexa 568-labeled goat anti-rabbit IgG antibody (Life Technologies).
# [1] = POD1, 2.5 mm in the distal direction, 1 mg/kg/day
# [2] = POD1, 2.5 mm in the proximal direction, 1 mg/kg/day
# [3] = POD1, 5.0 mm in the distal direction, 1 mg/kg/day
# [4] = POD1, 7.5 mm in the distal direction, 1 mg/kg/day
# [5] = POD3, 2.5 mm in the distal direction, 1 mg/kg/day
# [6] = POD3, 2.5 mm in the proximal direction, 1 mg/kg/day
# [7] = POD3, 5.0 mm in the distal direction, 1 mg/kg/day
# [8] = POD3, 7.5 mm in the distal direction, 1 mg/kg/day
# [9] = POD7, 2.5 mm in the distal direction, 1 mg/kg/day
# [10] = POD7, 2.5 mm in the proximal direction, 1 mg/kg/day
# [11] = POD7, 5.0 mm in the distal direction, 1 mg/kg/day
# [12] = POD7, 7.5 mm in the distal direction, 1 mg/kg/day
# [13] = POD14, 2.5 mm in the distal direction, 1 mg/kg/day
# [14] = POD14, 2.5 mm in the proximal direction, 1 mg/kg/day
# [15] = POD14, 5.0 mm in the distal direction, 1 mg/kg/day
# [16] = POD14, 7.5 mm in the distal direction, 1 mg/kg/day
# [17] = POD14, Injury site, 1 mg/kg/day
structure (smiles),measurement,setting,value
"C/C1=C2/[N-][C@H]([C@H](CC(N)=O)[C@@]2(C)CCC(=O)NC[C@@H](C)OP(=O)([O-])O[C@H]2[C@@H](O)[C@@H](n3cnc4cc(C)c(C)cc43)O[C@@H]2CO)[C@]2(C)N=C(/C(C)=C3N=C(/C=C4N=C1[C@@H](CCC(N)=O)C\4(C)C)[C@@H](CCC(N)=O)[C@]\3(C)CC(N)=O)[C@@H](CCC(N)=O)[C@]2(C)CC(N)=O.[CH3-].[Co+3] [MeCbl, methylcobalamin]",Number of M2 macrophages,"POD1, 2.5 mm in the distal direction",46.53
same,M1 macrophage ratio,[1],0.183
same,M2 macrophage ratio,[1],0.658
same,Number of M1 macrophages,[1],10.27 per mm^2
same,Number of macrophages,[1],64.37 per mm^2
same,Number of M2 macrophages,"POD1, 2.5 mm in the proximal direction",32.72
same,M1 macrophage ratio,[2],0.095
same,M2 macrophage ratio,[2],0.743
same,Number of M1 macrophages,[2],3.42 per mm^2
same,Number of macrophages,[2],40.53 per mm^2
same,Number of M2 macrophages,"POD1, 5.0 mm in the distal direction",33.90
same,M1 macrophage ratio,[3],0.109
same,M2 macrophage ratio,[3],0.765
same,Number of M1 macrophages,[3],4.40 per mm^2
same,Number of macrophages,[3],43.67 per mm^2
same,Number of M2 macrophages,"POD1, 7.5 mm in the distal direction",32.83
same,M1 macrophage ratio,[4],0.097
same,M2 macrophage ratio,[4],0.777
same,Number of M1 macrophages,[4],3.21 per mm^2
same,Number of macrophages,[4],35.68 per mm^2
same,Number of M2 macrophages,"POD1, Injury site",139.28
same,M1 macrophage ratio,"POD1, Injury site, 1 mg/kg/day",0.195
same,M2 macrophage ratio,"POD1, Injury site, 1 mg/kg/day",0.431
same,Number of M1 macrophages,"POD1, Injury site, 1 mg/kg/day",63.55 per mm^2
same,Number of macrophages,"POD1, Injury site, 1 mg/kg/day",336.86 per mm^2
same,Number of M2 macrophages,"POD3, 2.5 mm in the distal direction",147.74
same,M1 macrophage ratio,[5],0.165
same,M2 macrophage ratio,[5],0.693
same,Number of M1 macrophages,[5],23.50 per mm^2
same,Number of macrophages,[5],181.38 per mm^2
same,Number of M2 macrophages,"POD3, 2.5 mm in the proximal direction",43.76
same,M1 macrophage ratio,[6],0.068
same,M2 macrophage ratio,[6],0.708
same,Number of M1 macrophages,[6],3.04 per mm^2
same,Number of macrophages,[6],48.52 per mm^2
same,Number of M2 macrophages,"POD3, 5.0 mm in the distal direction",117.16
same,M1 macrophage ratio,[7],0.145
same,M2 macrophage ratio,[7],0.659
same,Number of M1 macrophages,[7],13.13 per mm^2
same,Number of macrophages,[7],135.88 per mm^2
same,Number of M2 macrophages,"POD3, 7.5 mm in the distal direction",115.48
same,M1 macrophage ratio,[8],0.186
same,M2 macrophage ratio,[8],0.694
same,Number of M1 macrophages,[8],15.57 per mm^2
same,Number of macrophages,[8],124.99 per mm^2
same,Number of M2 macrophages,"POD3, Injury site",603.12
same,M1 macrophage ratio,"POD3, Injury site, 1 mg/kg/day",0.163
same,M2 macrophage ratio,"POD3, Injury site, 1 mg/kg/day",0.479
same,Number of M1 macrophages,"POD3, Injury site, 1 mg/kg/day",198.96 per mm^2
same,Number of macrophages,"POD3, Injury site, 1 mg/kg/day",1261.77 per mm^2
same,Number of macrophages,"POD3, Injury site, 1 mg/kg/day, listed as methylcobalamin",significantly decreased
same,Number of M2 macrophages,"POD7, 2.5 mm in the distal direction",457.16
same,M1 macrophage ratio,[9],0.043
same,M2 macrophage ratio,[9],0.463
same,Number of M1 macrophages,[9],37.09 per mm^2
same,Number of macrophages,[9],921.92 per mm^2
same,Number of M2 macrophages,"POD7, 2.5 mm in the proximal direction",26.25
same,M1 macrophage ratio,[10],0.049
same,M2 macrophage ratio,[10],0.642
same,Number of M1 macrophages,[10],1.54 per mm^2
same,Number of macrophages,[10],36.63 per mm^2
same,Number of M2 macrophages,"POD7, 5.0 mm in the distal direction",432.13
same,M1 macrophage ratio,[11],0.039
same,M2 macrophage ratio,[11],0.505
same,Number of M1 macrophages,[11],25.29 per mm^2
same,Number of macrophages,[11],763.17 per mm^2
same,Number of M2 macrophages,"POD7, 7.5 mm in the distal direction",327.16
same,M1 macrophage ratio,[12],0.045
same,M2 macrophage ratio,[12],0.506
same,Number of M1 macrophages,[12],22.71 per mm^2
same,Number of macrophages,[12],584.14 per mm^2
same,Number of M2 macrophages,"POD7, Injury site",654.63
same,M1 macrophage ratio,"POD7, Injury site, 1 mg/kg/day",0.046
same,M2 macrophage ratio,"POD7, Injury site, 1 mg/kg/day",0.571
same,Number of M1 macrophages,"POD7, Injury site, 1 mg/kg/day",47.56 per mm^2
same,Number of macrophages,"POD7, Injury site, 1 mg/kg/day",1096.37 per mm^2
same,Number of macrophages,"POD7, Injury site, 1 mg/kg/day, listed as methylcobalamin",significantly decreased
same,Number of M2 macrophages,"POD14, 2.5 mm in the distal direction",443.91
same,M1 macrophage ratio,[13],0.033
same,M2 macrophage ratio,[13],0.459
same,Number of M1 macrophages,[13],27.86 per mm^2
same,Number of macrophages,[13],898.81 per mm^2
same,Number of M2 macrophages,"POD14, 2.5 mm in the proximal direction",35.65
same,M1 macrophage ratio,[14],0.039
same,M2 macrophage ratio,[14],0.638
same,Number of M1 macrophages,[14],2.34 per mm^2
same,Number of macrophages,[14],51.79 per mm^2
same,Number of M2 macrophages,"POD14, 5.0 mm in the distal direction",434.68
same,M1 macrophage ratio,[15],0.029
same,M2 macrophage ratio,[15],0.487
same,Number of M1 macrophages,[15],22.35 per mm^2
same,Number of macrophages,[15],827.51 per mm^2
same,Number of M2 macrophages,"POD14, 7.5 mm in the distal direction",417.86
same,M1 macrophage ratio,[16],0.024
same,M2 macrophage ratio,[16],0.487
same,Number of M1 macrophages,[16],15.59 per mm^2
same,Number of macrophages,[16],752.29 per mm^2
same,Number of M2 macrophages,"POD14, Injury site",560.45
same,M1 macrophage ratio,[17],0.025
same,M2 macrophage ratio,[17],0.610
same,Number of M1 macrophages,[17],21.33 per mm^2
same,Number of macrophages,[17],899.57 per mm^2
same,Number of macrophages,"POD14, Injury site, 1 mg/kg/day, listed as methylcobalamin",significantly decreased
same,numbers of M1 macrophages as compared to the untreated group,"all evaluation days (1, 3, 7, 14 days), 1 mg/kg/day",significantly decreased
same,numbers of M1 macrophages as compared to the untreated group,"distal portions, 7 and 14 days after the surgery, 1 mg/kg/day",significant differences
same,number of macrophages as compared to the untreated group,"distal positions, 14 days after the surgery, 1 mg/kg/day",significant difference
same,numbers of M2 macrophages as compared to the untreated group,"injury site, 1, 7 and 14 days after the surgery, 1 mg/kg/day",significantly increased
